Measured values as given in PubChem BioAssay (NCI).
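Growth conditions: 96-well plates. Treatment: test compound, 48 hours, 5 concentrations. Analysis: linear interpolation between bracketing concentrations; unreached endpoints set to highest concentration. GI50 = concentration required for 50% inhibition of growth. TGI is the concentration that stops growth completely.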

Key:
Test in all cases: NCI anticancer screen, dose series, 48 h
[1] = system: SF-295 CNS
[2] = system: SK-MEL-28 melanoma
[3] = system: IGROV1 ovarian
[4] = system: COLO 205 colon
[5] = system: M14 melanoma
[6] = system: SN12C renal
[7] = system: SF-268 CNS
[8] = system: CCRF-CEM leukemia
[9] = system: SR leukemia
[10] = system: T-47D breast

Row | SMILES | TGI [1] | TGI [2] | TGI [3] | TGI [4] | TGI [5] | TGI [6] | GI50 [7] | TGI [7] | GI50 [1] | GI50 [2] | GI50 [8] | TGI [8] | GI50 [3] | GI50 [4] | GI50 [5] | GI50 [6] | TGI [9] [µM] | GI50 [10] [µM] | TGI [10] [µM] | GI50 [9] [µM]
1 | COc1ccc2c3c(c(C(=O)O)oc13)C(CCC(=O)O)CC2 (stereo not drawn) | > 100 µM | > 100 µM | > 100 µM | > 100 µM | > 100 µM | > 100 µM |  |  |  |  |  |  |  |  |  |  |  |  |  | 
2 | c1ccc2c(c1)[O][Sn][O]2 | > 150 µg/mL | > 150 µg/mL | > 150 µg/mL | > 150 µg/mL | > 150 µg/mL | > 150 µg/mL | 25.1 µg/mL | > 150 µg/mL | > 150 µg/mL | 81.8 µg/mL | 1.12 µg/mL | > 150 µg/mL | 24.3 µg/mL | > 150 µg/mL | 57.3 µg/mL | 41.8 µg/mL |  |  |  | 
3 | C/C(CC(=O)Nc1cccc(Cl)c1C)=N\N=C(N)N | > 100 µM | > 100 µM | > 100 µM | > 100 µM | > 100 µM | > 100 µM |  | > 100 µM |  |  |  | > 100 µM |  |  |  |  |  |  |  | 
4 | Cc1csc(CCC(N)C(=O)O)n1 (stereo not drawn) | > 100 µM | > 100 µM | > 100 µM | > 100 µM | > 100 µM | > 100 µM |  |  |  |  |  | > 100 µM |  |  |  |  |  |  |  | 
5 | CN(C)CCNC(=O)c1cccc2cc3ccc4ccccc4c3nc12 | 0.886 µM | 0.593 µM | 1.05 µM | 0.25 µM | 0.41 µM | 0.818 µM |  | 1.2 µM |  |  |  | 0.267 µM |  |  |  |  | 0.147 |  |  | 
6 | O=C(CN(/C=C/C(=O)C(F)(F)F)c1ccccc1)c1ccc(F)cc1 | 69.6 µM | > 100 µM | 79.2 µM | 58.3 µM |  | 54.9 µM | 23.1 µM | 64.5 µM | 20.8 µM | 54.8 µM | 15.8 µM | 41.4 µM | 21.9 µM | 25 µM |  | 21.2 µM |  | 35.3 | > 100 | 
7 | COC(=O)c1cc2ccccc2c2nc3ccccc3c(Cl)c12 | > 100 µM | > 100 µM | > 100 µM | > 100 µM | > 100 µM | > 100 µM |  | > 100 µM |  |  |  | > 100 µM |  |  |  |  | > 100 |  |  | 
8 | COc1cc2c3c(n(CCCN4CCSCC4)c(=O)c2cc1OC)-c1cc2c(cc1C3=O)OCO2 | > 100 µM | > 100 µM | 86.2 µM | > 100 µM | > 100 µM |  | 28.2 µM | > 100 µM | 19 µM | > 100 µM |  |  | 28.8 µM | > 100 µM | > 100 µM |  |  | > 100 | > 100 | 
9 | O[C@]12c3ccccc3C1CCCCC2N1CCOCC1 (stereo partly drawn) | > 100 µM | > 100 µM |  | > 100 µM | > 100 µM | > 100 µM |  | > 100 µM |  |  |  | > 100 µM |  |  |  |  | > 100 |  |  | 
10 | C=C(C)[C@@H]1CC[C@]2(C(=O)n3ccnc3)CC[C@]3(C)[C@H](CC[C@@H]4[C@@]5(C)CCCNC(C)(C)[C@@H]5CC[C@]43C)[C@@H]12 | 3.24 µM | 3.1 µM | 3.27 µM | 3.25 µM | 3.1 µM | 3.24 µM | 2.77 µM | 9.21 µM | 1.69 µM | 1.61 µM | 1.88 µM | 4.48 µM | 1.58 µM | 1.52 µM | 1.6 µM | 1.7 µM |  | 1.53 | 3.54 | 
11 | Cc1c(C)c2ccc(OC(C)C(=O)O)cc2oc1=O (stereo not drawn) | > 100 µM | > 100 µM | > 100 µM | > 100 µM | > 100 µM | > 100 µM |  | > 100 µM |  |  |  | > 100 µM |  |  |  |  | > 100 |  |  | 
12 | O=C1c2ccccc2-c2c1c1ccc([N+](=O)[O-])cc1c(=O)n2CCCCl | > 100 µM | > 100 µM | > 100 µM |  | > 100 µM | > 100 µM | 23.5 µM | > 100 µM | 2.25 µM | 17 µM |  |  | > 100 µM |  | 47 µM | 27.1 µM |  |  |  | 
13 | CN1CCOCCOCCOc2ccccc2NC(=O)c2nc(cnc2N)-c2ccc(cc2)S1(=O)=O | > 100 µM |  | > 100 µM |  |  | > 100 µM | 11.1 µM | > 100 µM | 4.52 µM |  |  |  | 0.0719 µM |  |  | > 100 µM |  | > 100 | > 100 | 
14 | O=C(Nc1ccc(Br)cc1)Nc1cccc(Br)c1 |  | > 100 µM | > 100 µM | > 100 µM | > 100 µM | > 100 µM | > 100 µM | > 100 µM |  | 4.77 µM |  |  | 5.82 µM | 4.1 µM | 9.96 µM | 71.8 µM | > 100 |  |  | 11.6
15 | CC1(C)CC(O)CC(C)(C)N1.CC1(C)CC(O)CC(C)(C)N1.CC1(C)CC(O)CC(C)(C)N1.CC1(C)CC(O)CC(C)(C)N1.Cl.[Ti] | > 100 µM | > 100 µM | > 100 µM | > 100 µM | > 100 µM | > 100 µM | > 100 µM | > 100 µM | > 100 µM | > 100 µM | > 100 µM | > 100 µM | > 100 µM | > 100 µM | > 100 µM | > 100 µM | > 100 |  |  | > 100
16 | Nc1c(C(=O)Nc2ccccc2O)[n+]([O-])c2ccccc2[n+]1[O-] | > 100 µM | > 100 µM | > 100 µM | > 100 µM | > 100 µM | > 100 µM |  |  |  |  |  |  |  |  |  |  | > 100 |  |  | 
17 | CC(C)=CC(=O)CC(=O)C(=O)NCCNC(=O)C(=O)CC(=O)C=C(C)C | > 50 µM | > 50 µM | > 50 µM | > 50 µM | > 50 µM | > 50 µM |  | > 50 µM |  |  |  |  |  |  |  |  |  |  |  | 
18 | O=C(Nc1ccc(Cl)c(Cl)c1)C1C(=O)N(c2ccc(Cl)c(Cl)c2)C(=O)/C1=N\O (stereo not drawn) | > 100 µM | 82.8 µM | > 100 µM | 41.9 µM | 53.8 µM | > 100 µM |  | > 100 µM |  |  |  | > 100 µM |  |  |  |  |  |  |  | 
19 | Cc1cc(OC(=O)c2c(C)cc(OC(=O)c3c(C)cc(O)cc3O)cc2O)cc(O)c1C(=O)O | > 100 µM | > 100 µM | > 100 µM | > 100 µM | > 100 µM | > 100 µM |  | > 100 µM |  |  |  | > 100 µM |  |  |  |  |  |  |  | 
20 | CC1=C(C(=O)CC(=O)C(=O)Nc2ccccc2C)Sc2ccccc2N1 | > 100 µM | > 100 µM | > 100 µM | > 61.6 µM | > 100 µM | > 100 µM |  | > 100 µM |  |  |  | > 100 µM |  |  |  |  | > 100 |  |  | 
